Read-outs that look alike come from different tables or passages of the source.
Experiments:
[1] = Bioavailability of peptides after vaginal administration to sheep, relative to intravenous injection; settings: female, in vivo, sheep
Method: (§1) First, a peptide that undergoes receptor-mediated transport across the vaginal epithelium was identified by studying the permeation of peptides of varying molecular weight in a sheep model. Peptides were delivered vaginally to sheep in 5 ml of aqueous or methocel solutions with typical peptide concentrations of 10-40 μg/ml. A group of 18 intact ewes were utilized for these experiments. For each study, sheep were randomly assigned to a treatment group. In GnRH studies where each animal received all possible treatment combinations, each animal was assigned to an initial treatment group at random and subsequently randomly to each of the remaining treatment groups. A minimum of 5 days (typically 10 or more days) was allowed between experiments on a given animal, to provide sufficient time for complete recovery of pituitary responsiveness to the highest doses of the GnRH agonist used A 16G 150 mm jugular catheter (Abbocath-T, Abbott Laboratories, Chicago, Ill.) was inserted and blood samples collected at 0, 30, 60, 90, 120, 180, 240, 360, 480 and 1440 min. after treatment. Luteinizing hormone (LH) levels were determined.
LHRH analog was placed in methyl cellulose solutions (“methocels”) of varying apparent viscosity. […] First, 200 μg of leuprolide acetate in 5 ml of aqueous solutions with melhocel weight concentrations varying between 0% and 3.0% were vaginally administered.
The enhanced bioavailability of LHRH also coincides with a longer-term release into the systemic circulation at the optimal methocel concentrations. […] To test this hypothesis, the efficacy of a second, physically cross-linked hydrogel that was believed would not enhance endocytosis, but whose apparent viscosity (in the range of hydrogel concentrations 0.0-5.5%) was similar to that of the methocels (in the range 0.0-3.0%) was examined.

[2] = test system: serum cortisol; experiment: Serum cortisol response to iv injection and vaginal administration of vasopressin; type: in vivo, sheep
Method: FIGS. 1a and 1b are graphs showing serum responses to iv injection and vacinal administration of vasopressin and leuprolide acetate. […] Vasopressin was injected intravenously ([…]) through a jugular catheter. The peptide was delivered vaginally in 5 ml of aqueous solution (200 g does). Standard errors are based on n=6. […] LHRH analog was injected intravenously ([…]) into through a jugular catheter. The peptide was delivered vaginally in 5 ml of aqueous solution (200 g dose). Standard errors are based on n=6.
as §1
To determine whether membrane damage might explain the results shown in FIG. 2, vasopressin was vaginally administered in methocel solutions of 1.5 and 1.75%.

[3] = test system: luteinizing hormone (LH); experiment: Chronic daily vaginal dosing of DES in gel to suppress LH secretion, ovariectomized sheep without steroids; type: in vivo; settings: no steroid
Method: The objective was to determine if chronic vaginal dosing with 200 μg of deslorelin (“DES”) in gel would be able to suppress secretion of LH. […] doses of DES will result in the down-regulation of the anterior pituitary gland in sheep. Ovariectomized sheep were used for the study, since they secrete high levels of LH in the-absence of ovarian steroids. The sheep were dosed daily with DES in 5 mL of gel, or gel only for 17 days. A single blood sample was collected by jugular venipuncture. Plasma was collected and assayed for LH.

[4] = test system: luteinizing hormone (LH); type: in vivo, sheep
Method: Ewes (n=12) were treated with progesterone using a vaginal CIDR device. In addition, six sheep received a 15 mm silastic implant of estradiol. Five days later, all sheep were treated vaginally with 200 μg of DES in gel. Blood samples were taken every 30 minutes for 2 hours following treatment and then every 60 minutes for an additional four hours.

[5] = test system: luteinizing hormone (LH); experiment: Daily vaginal DES in progesterone-primed ovariectomized ewes: basal LH and pituitary responsiveness; type: in vivo, sheep
Method: The objective of this study was to determine if daily vaginal administration of DES in progesterone-primed ewes would cause a reduction in basal LH secretion and loss of pituitary responsiveness of GnRH. Six ovariectomized ewes were used for the study. Vaginal CIDR devices containing progesterone were inserted. Twenty-four hours later, ewes were dosed daily with 200 μg of DES (GnRH agonist) in 5 mL of gel. Each day, blood samples were collected at 0 and 120 minutes post-treatment. These times were selected in order to evaluate changes in basal secretion of LH (time 0) and the peak LH response following GnRH administration (time 120).

[6] = test system: luteinizing hormone (LH); experiment: LH release after DES in gel in ewes given systemic depot progesterone and ear implants of synthetic progestogen; type: in vivo, sheep
Method: An attempt was made to treat ewes with progesterone using the systemic administration of a depot form of progesterone and ear implants of a synthetic progestogen. Pituitary release of LH was poor following the vaginal administration of DES in gel. When LH release in these animals was not observed, the gel from the same preparations used vaginally was injected subcutaneously. LH release was then obtained, confirming that the DES/gel preparations contained biologically active material. Given the consistent responses obtained in earlier experiments and those obtained more recently using the CIDR delivery system, it was concluded that the progesterone (generally) should be applied directly to the vagina in order to achieve sufficient local concentrations. Given that luteal phase sheep also respond well, systemic administration of greater amounts of progesterone than used here, in formulations that will maintain consistently high concentrations in the blood, should also work.

[7] = test system: luteinizing hormone (LH); experiment: CIDR device control study: LH release after vaginal DES; type: in vivo, sheep
Method: Another study provided information about the role of the silastic CIDR device itself in the delivery process. The study was based on concern that the CIDR might be damaging the vaginal mucosa, allowing for GnRH transport by a non-selective mechanism. CIDR devices were inserted into six ewes. Five days later, all ewes were treated vaginally with DES. […] After the initial dosing, three ewes were treated with DES and three with gel alone every day for 18 days. At the end of the 18-day treatment period, all ewes were again treated with DES in gel. […] Consequently, by the time the second DES administration was given, the CIDR devices had been in place for approximately 24 days. The ewes therefore were no longer receiving adequate amounts of progesterone locally to maintain the vaginal transport system.

## NC(=O)CC[C@@H]1NC(=O)[C@H](Cc2ccccc2)NC(=O)[C@H](Cc2ccc(O)cc2)NC(=O)[C@@H](N)CSSC[C@@H](C(=O)N2CCC[C@H]2C(=O)N[C@@H](CCCN=C(N)N)C(=O)NCC(N)=O)NC(=O)[C@H](CC(N)=O)NC1=O [vasopressin]
[1]; 200 μg, vaginal administration in an aqueous buffer, leuprolide value based on biological response, read-out: bioavailability
  bioavailability: < 0.1%
[2]; intravenous injection, within the first hour following treatment
  systemic cortisol levels: high systemic cortisol levels
[2]; vaginal administration in methocel solutions of 1.5 and 1.75%
  changes in concentrations of cortisol: no detectable changes
[2]; vaginal administration, aqueous solution (FIG. 1a)
  change in systemic cortisol levels: no detectable change

## CCNC(=O)[C@@H]1CCCN1C(=O)[C@H](CCCN=C(N)N)NC(=O)[C@H](CC(C)C)NC(=O)[C@@H](Cc1c[nH]c2ccccc12)NC(=O)[C@H](Cc1ccc(O)cc1)NC(=O)[C@H](CO)NC(=O)[C@H](Cc1c[nH]c2ccccc12)NC(=O)[C@H](Cc1cnc[nH]1)NC(=O)[C@@H]1CCC(=O)N1 [DES, deslorelin]
[3]; 200 μg daily vaginally in 5 mL gel for 17 days
  average LH concentrations, DES versus control (gel only) group: no differences
[3]; between days 6 and 12 of daily vaginal dosing
  LH secretion: slightly suppressed
[4]; 200 μg vaginally in gel, 5 days after progesterone CIDR with or without estradiol implant, n=12
  ewes that responded with a robust discharge of LH: All ewes
[4]; ewes treated only with progesterone
  time of peak LH: 120 min
[4]; ewes treated with progesterone and estradiol
  time of peak LH: 240 min
[4]; in vivo
  lag time between vaginal administration and transport of sufficient amounts into the blood to cause LH release: 70 to 80 min
[5]; 200 μg daily vaginally in 5 mL gel, progesterone-primed ovariectomized ewes
  ewes in which the change in LH between 0 and 120 minutes was greatest on the first day of administration: 3 of 6
[5]; after four days of exposure to progesterone
  ewes that transport GnRH: ~100%
[5]; after only 24 hours of exposure to progesterone
  ewes with significant transport: Approximately 50%
[5]; progesterone-primed ewes, daily treatment, time 0 sample (FIG. 8)
  basal LH: significant decreases
[5]; progesterone-primed ewes, first-treatment LH differential set to 100% (FIG. 7)
  pituitary responsiveness with continued daily treatment: significantly reduced
[5]; the two remaining animals of six
  time over which the change in LH secretion continued to increase after initiation of treatment: 5 to 7 days
[5]; the two remaining animals of six (Ewe 9)
  pituitary responsiveness once the maximum response was achieved: rapidly declined
[6]; same gel preparation injected subcutaneously
  LH release: obtained
[6]; vaginal administration in gel, systemic depot progesterone and progestogen ear implants
  pituitary release of LH: poor
[7]; DES in gel at end of 18-day period, CIDR in place approximately 24 days
  ewes that displayed a robust release of LH: none
[7]; vaginal treatment five days after CIDR insertion
  ewes with a robust release of LH: Five of the six

## CC(C)C[C@H](NC(=O)[C@H](CCCCN)NC(=O)CNC(=O)[C@H](CC(C)C)NC(=O)[C@@H](NC(=O)[C@@H]1CSSC[C@H](N)C(=O)N[C@@H](CO)C(=O)N[C@@H](CC(N)=O)C(=O)N[C@@H](CC(C)C)C(=O)N[C@@H](CO)C(=O)N[C@@H]([C@@H](C)O)C(=O)N1)C(C)C)C(=O)N[C@@H](CO)C(=O)N[C@@H](CCC(N)=O)C(=O)N[C@@H](CCC(=O)O)C(=O)N[C@@H](CC(C)C)C(=O)N[C@@H](Cc1c[nH]cn1)C(=O)N[C@@H](CCCCN)C(=O)N[C@@H](CC(C)C)C(=O)N[C@@H](CCC(N)=O)C(=O)N[C@H](C(=O)N[C@@H](Cc1ccc(O)cc1)C(=O)N1CCC[C@H]1C(=O)N[C@@H](CCCNC(=N)N)C(=O)N[C@H](C(=O)N[C@@H](CC(N)=O)C(=O)N[C@H](C(=O)NCC(=O)N[C@@H](CO)C(=O)NCC(=O)N[C@H](C(=O)N1CCC[C@H]1C(N)=O)[C@@H](C)O)[C@@H](C)O)[C@@H](C)O)[C@@H](C)O [salmon calcitonin]
[1]
  bioavailability: < 0.1%

Reference: USRE42072E1, “Compositions and methods for enhancing receptor-mediated cellular internalization” (The Penn State Research Foundation, priority 1996, dated 2011)
